From patent US20250152545A1, “NOVEL ANTIVIRAL COMPOSITIONS COMPRISING OLEIC ACID” (SUBINTRO LIMITED, priority 2021, published 2025)

Legend:
Format in all cases: cell-based
[1] = system: SARS-COV-2 (strain BetaCoV/France/IDF0571/2020); assay: SARS-COV-2 viral load in apical wash of infected ALI cultured human nasal epithelium (RT-PCR); conditions: apical treatment; apilimod (as mesylate) 2 mg/ml 50 uL and/or surfactants 0.15% w/w polysorbate 80 + 0.2% w/w oleic acid; apical wash 48 hrs post inoculation; MOI 0.1
Text: Primary human nasal, trachea, and bronchial epithelial cells can be cultured and differentiated at an air-liquid interface (ALI), forming a pseudostratified mucociliary airway epithelium that is composed of ciliated cells, goblet cells, club cells, and basal cells with an arrangement closely reflective of an in vivo cellular organization. This in vitro model of human airway epithelium (HAE) cultured at an ALI (HAE-ALI) closely recapitulates many important characteristics of respiratory virus-host cell interactions seen in the infected upper and lower airways in vivo and has been used to study many human respiratory viruses, including SARS-COV-2. […]
Virus load was quantified by RT-PCR as reported by Pizzorno et al. (Cell Rep Med. 1 (4): 100059, 2020). […] Viral RNA will be quantified by RT-qPCR (Express One-Step Superscript™ qRT-PCR kit, Invitrogen). SARS-COV-2-specific primer and probes used for viral genome quantification as follows: Target: ORF1b-nsp14 Forward primer (HKU-ORF1b-nsp14F) 5′-[…]-3′ Reverse primer (HKU-ORF1b-nsp14R) 5′-[…]-3′ Probe (HKU-ORF1b-nsp141P) 5′-FAM-[…]-TAMRA-3′. Ct data were determined and relative changes in gene expression were calculated using the […] and shown as the fold reduction of genome copy number (ORF1b-nsp14 gene of SARS-COV-2) relative to the mean of vehicle treated infected control.

[2] = system: SARS-COV-2 infected ALI cultured human nasal epithelium; conditions: apical treatment, apilimod (as mesylate) 2 mg/ml 50 uL; 48 hrs post virus inoculation
[3] = system: H1N1 (strain A/Switzerland/7717739/2013)

SMILES | reduction of viral load (genome copy number, ORF1b-nsp14) compared with virus infection control [1] | inhibition of virus-induced reduction in TEER [2] | reduction of viral load (assay control) ([3]; 10 µM in a basal chamber, Day 0, 24 hrs post inoculation) | reduction of viral load (genome copy number) compared with virus infection control ([3]; apical treatment, oseltamivir carboxylate 1 μM and/or surfactants 0.15% polysorbate 80 + 0.2% oleic acid, apical wash 24 hrs post inoculation)
Cc1cccc(/C=N/Nc2cc(N3CCOCC3)nc(OCCc3ccccn3)n2)c1 [apilimod] | 0.1 log | 48% | – | –
CCC(CC)O[C@@H]1C=C(C(=O)O)C[C@H](N)[C@H]1NC(C)=O [oseltamivir carboxylate] | – | – | 1.7 log | 1.0 log
